Reference: patent publication US9624208B2, “Benzoxazolinone compounds with selective activity in voltage-gated sodium channels” (Merck Sharp & Dohme Corp., priority 2012, dated 2017)

Key:
[1] = target: T1, human Nav1.5 (Homo sapiens, UniProt Q14524); assay: PatchXpress sodium current measurement, inactivated state block, Nav1.5; assay type: cell-based; conditions: determined by PatchXpress measurement, HEK 293 cells
T1 construct: expressed in transfected cells
Experimental: (§1) Cell Based Assays for Nav 1.7 and Nav 1.5 Activity
(§2) Compounds were tested on human Nav1.7 and Nav1.5 channels stably expressed in HEK 293 cells.
(§3) Sodium Current Measurements on the PatchXpress 7000:
(§4) To measure inactivated state block of sodium channels, test compounds were characterized in an automated PatchXpress® assay (Molecular Devices) using a double-pulse protocol on human Nav1.7 and Nav1.5 channels stably expressed in HEK 293 cells. Cells were held at a potential 20 mV negative to the potential at which ˜50% of the channels are inactivated. A 8000 ms pre-pulse 7 mV positive to the potential at which ˜50% of the channels are inactivated was given followed by a hyperpolarizing 2 ms pulse to −120 mV and a 20 ms test pulse to −20 mV. The protocol was applied to cells in the absence, presence of compound and after washout. The temperature of PatchXpress® instruments was maintained at 22° C. The following recording solutions were used. Internal solution (mM): 30 CsCl, 5 HEPES, 10 EGTA, 120 CsF, 5 NaF, 2 MgCl2, pH 7.3 with CsOH. External solution (mM): 120 NMDG, 40 NaCl, 1 KCl, 0.5 MgCl2, 5 HEPES, 2.7 CaCl2, pH 7.5 with NMDG-OH. Estimated IC50 values were calculated based on at least two compound concentrations tested. For all electrophysiology experiments, offline analysis was used to correct for current rundown and to determine percent inhibition as a function of drug concentration. IC50 values were determined by fitting to the Hill equation.

[2] = target: T2, human Nav1.7 (Homo sapiens, UniProt Q15858); assay: PatchXpress sodium current measurement, inactivated state block, Nav1.7; assay type: cell-based; conditions: channels stably expressed in HEK 293 cells, double-pulse protocol, 22° C., read-out: potency for the Nav 1.7 sodium ion channel (1.7=)
T2 construct: expressed in transfected cells
T2 sequence (Q15858 whole entry): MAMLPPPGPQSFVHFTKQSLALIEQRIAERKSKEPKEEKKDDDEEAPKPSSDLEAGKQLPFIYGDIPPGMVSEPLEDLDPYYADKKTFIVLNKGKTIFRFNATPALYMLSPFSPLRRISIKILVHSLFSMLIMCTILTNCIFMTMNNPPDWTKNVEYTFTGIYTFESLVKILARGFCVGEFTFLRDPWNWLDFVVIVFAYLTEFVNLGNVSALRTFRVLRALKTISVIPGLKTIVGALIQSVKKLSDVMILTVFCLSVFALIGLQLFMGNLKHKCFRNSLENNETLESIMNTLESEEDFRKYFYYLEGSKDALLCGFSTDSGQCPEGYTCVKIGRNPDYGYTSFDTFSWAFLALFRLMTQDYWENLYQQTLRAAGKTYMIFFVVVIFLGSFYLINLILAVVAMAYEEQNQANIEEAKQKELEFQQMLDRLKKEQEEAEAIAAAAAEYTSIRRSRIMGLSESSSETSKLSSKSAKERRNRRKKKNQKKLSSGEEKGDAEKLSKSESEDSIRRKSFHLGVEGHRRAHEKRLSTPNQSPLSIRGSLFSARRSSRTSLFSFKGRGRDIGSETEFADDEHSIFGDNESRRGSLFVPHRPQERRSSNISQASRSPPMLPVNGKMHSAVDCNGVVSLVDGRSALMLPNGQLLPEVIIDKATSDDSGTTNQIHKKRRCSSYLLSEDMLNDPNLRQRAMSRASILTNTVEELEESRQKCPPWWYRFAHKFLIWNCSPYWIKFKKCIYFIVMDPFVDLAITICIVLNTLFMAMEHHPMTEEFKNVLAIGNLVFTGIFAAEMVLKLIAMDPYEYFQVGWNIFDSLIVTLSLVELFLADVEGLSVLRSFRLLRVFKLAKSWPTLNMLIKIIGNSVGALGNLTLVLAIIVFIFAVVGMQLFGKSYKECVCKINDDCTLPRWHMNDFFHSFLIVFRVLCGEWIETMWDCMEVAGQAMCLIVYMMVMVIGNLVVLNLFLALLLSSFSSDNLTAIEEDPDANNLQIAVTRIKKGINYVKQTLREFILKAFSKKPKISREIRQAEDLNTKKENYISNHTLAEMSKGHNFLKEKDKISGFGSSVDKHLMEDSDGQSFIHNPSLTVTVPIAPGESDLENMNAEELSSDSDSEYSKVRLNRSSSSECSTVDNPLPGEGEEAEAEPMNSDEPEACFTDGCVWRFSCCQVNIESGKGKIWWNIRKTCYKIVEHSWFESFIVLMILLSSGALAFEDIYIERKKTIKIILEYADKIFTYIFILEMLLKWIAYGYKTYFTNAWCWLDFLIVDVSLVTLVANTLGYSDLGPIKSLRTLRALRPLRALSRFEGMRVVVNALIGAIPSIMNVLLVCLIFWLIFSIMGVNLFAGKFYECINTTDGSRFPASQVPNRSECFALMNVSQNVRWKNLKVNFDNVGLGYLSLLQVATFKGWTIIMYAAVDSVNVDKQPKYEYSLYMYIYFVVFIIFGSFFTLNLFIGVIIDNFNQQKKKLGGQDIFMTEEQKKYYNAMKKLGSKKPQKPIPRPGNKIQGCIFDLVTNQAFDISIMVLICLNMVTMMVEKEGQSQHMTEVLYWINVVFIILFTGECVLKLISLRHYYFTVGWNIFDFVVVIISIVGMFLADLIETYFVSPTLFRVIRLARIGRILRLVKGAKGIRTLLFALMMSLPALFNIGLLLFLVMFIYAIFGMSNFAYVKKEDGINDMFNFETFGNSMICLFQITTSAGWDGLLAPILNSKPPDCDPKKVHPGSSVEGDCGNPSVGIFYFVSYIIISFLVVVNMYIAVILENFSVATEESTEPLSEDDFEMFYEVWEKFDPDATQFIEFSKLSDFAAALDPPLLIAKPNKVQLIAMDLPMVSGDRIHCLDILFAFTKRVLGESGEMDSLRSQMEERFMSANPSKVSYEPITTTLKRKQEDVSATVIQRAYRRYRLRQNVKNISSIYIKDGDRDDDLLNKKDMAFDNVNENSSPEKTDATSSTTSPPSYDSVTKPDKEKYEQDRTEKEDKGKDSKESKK
Experimental: as §1, §2, §3, §4

T1 sequence (Q14524 whole entry): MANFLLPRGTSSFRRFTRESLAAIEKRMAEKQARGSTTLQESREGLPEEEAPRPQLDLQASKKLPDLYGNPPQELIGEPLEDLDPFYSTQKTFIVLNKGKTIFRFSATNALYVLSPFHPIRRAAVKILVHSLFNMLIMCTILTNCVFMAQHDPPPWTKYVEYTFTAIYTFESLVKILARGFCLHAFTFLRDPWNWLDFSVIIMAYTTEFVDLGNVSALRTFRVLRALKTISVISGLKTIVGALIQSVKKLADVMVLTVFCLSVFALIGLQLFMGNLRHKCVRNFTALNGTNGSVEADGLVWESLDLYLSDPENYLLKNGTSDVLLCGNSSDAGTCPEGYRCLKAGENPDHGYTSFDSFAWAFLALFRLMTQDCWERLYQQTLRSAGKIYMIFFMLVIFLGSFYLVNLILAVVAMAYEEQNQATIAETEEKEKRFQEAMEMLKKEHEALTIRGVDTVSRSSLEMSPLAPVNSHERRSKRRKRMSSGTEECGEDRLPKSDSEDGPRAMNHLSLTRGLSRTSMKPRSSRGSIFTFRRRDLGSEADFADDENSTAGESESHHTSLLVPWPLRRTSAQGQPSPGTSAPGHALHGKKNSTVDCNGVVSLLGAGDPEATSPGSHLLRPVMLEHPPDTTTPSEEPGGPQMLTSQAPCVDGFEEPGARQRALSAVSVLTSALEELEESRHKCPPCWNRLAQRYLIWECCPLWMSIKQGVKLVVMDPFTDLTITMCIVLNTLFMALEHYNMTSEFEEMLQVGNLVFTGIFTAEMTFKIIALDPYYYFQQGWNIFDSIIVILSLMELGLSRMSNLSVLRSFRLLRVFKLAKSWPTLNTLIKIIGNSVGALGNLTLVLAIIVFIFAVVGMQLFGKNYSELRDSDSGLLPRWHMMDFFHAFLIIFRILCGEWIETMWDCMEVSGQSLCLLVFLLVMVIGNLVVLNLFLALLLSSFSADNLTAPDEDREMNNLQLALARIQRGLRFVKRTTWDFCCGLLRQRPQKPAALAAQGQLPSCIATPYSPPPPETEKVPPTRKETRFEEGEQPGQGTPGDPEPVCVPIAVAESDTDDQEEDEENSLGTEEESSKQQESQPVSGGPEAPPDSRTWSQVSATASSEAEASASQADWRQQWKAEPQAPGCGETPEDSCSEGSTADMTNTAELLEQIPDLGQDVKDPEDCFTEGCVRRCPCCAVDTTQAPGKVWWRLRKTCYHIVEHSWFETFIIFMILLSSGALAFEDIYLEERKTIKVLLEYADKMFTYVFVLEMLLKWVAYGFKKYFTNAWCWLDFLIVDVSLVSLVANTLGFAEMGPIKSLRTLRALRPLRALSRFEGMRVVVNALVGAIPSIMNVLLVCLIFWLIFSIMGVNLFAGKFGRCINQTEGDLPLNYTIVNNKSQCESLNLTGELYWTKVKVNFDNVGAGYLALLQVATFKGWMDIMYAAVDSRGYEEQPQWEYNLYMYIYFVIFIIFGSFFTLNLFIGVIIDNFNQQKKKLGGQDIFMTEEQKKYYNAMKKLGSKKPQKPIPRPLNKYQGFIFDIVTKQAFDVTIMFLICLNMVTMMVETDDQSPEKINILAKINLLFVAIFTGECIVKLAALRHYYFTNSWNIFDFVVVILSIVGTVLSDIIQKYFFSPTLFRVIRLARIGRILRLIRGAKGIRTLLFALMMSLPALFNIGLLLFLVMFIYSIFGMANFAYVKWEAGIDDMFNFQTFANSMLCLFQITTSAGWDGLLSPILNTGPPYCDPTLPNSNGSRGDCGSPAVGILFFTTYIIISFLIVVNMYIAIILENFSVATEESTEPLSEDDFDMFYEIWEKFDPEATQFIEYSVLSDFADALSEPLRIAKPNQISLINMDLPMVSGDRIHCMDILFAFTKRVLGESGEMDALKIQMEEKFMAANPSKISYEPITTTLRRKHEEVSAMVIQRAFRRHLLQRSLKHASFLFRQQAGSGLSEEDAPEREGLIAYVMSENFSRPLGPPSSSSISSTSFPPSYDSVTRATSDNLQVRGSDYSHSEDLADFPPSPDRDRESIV

Row | Structure (SMILES) | ratio of Nav 1.5:Nav 1.7 potency [1] | IC50 [2] [nM]
1 | C[C@H](c1ccccc1CN1CCCCC1)n1c(=O)oc2cc(S(=O)(=O)Nc3cccc(F)n3)c(F)cc21 [Ex9-3, 5-fluoro-N-(6-fluoropyridin-2-yl)-2-oxo-3-{(1R)-1-[2-(piperidin-1-ylmethyl)phenyl]ethyl}-2,3-dihydro-1,3-benzoxazole-6-sulfonamide] | 68 | 300
2 | C[C@H](c1ccccc1C1CNC1)n1c(=O)oc2cc(S(=O)(=O)Nc3cccc(F)n3)c(F)cc21 [Ex10-3, (R)-3-(1-(2-(Azetidin-3-yl)phenyl)ethyl)-5-fluoro-N-(6-fluoropyridin-2-yl)-2-oxo-2,3-dihydrobenzo[d]oxazole-6-sulfonamide] | 1306 | 39
3 | C[C@H](c1ccccc1C1CN(S(C)(=O)=O)C1)n1c(=O)oc2cc(S(=O)(=O)Nc3cccc(F)n3)c(F)cc21 [Ex11-1] | 34 | 213
4 | C[C@H](c1ccccc1C1(O)CNC1)n1c(=O)oc2cc(S(=O)(=O)Nc3cccc(F)n3)c(F)cc21 [Ex12-4, (R)-5-Fluoro-N-(6-fluoropyridin-2-yl)-3-(1-(2-(3-hydroxyazetidin-3-yl)phenyl)ethyl)-2-oxo-2,3-dihydrobenzo[d]oxazole-6-sulfonamide] | 75 | 400
5 | C[C@H](c1ccccc1C1(F)CNC1)n1c(=O)oc2cc(S(=O)(=O)Nc3cccc(F)n3)c(F)cc21 [Ex12-6, (R)-5-Fluoro-3-(1-(2-(3-fluoroazetidin-3-yl)phenyl)ethyl)-N-(6-fluoropyridin-2-yl)-2-oxo-2,3-dihydrobenzo[d]oxazole-6-sulfonamide] | 648 | 46
6 | Cc1cccc([C@@H](C)n2c(=O)oc3cc(S(=O)(=O)Nc4cccc(F)n4)c(F)cc32)c1Br [Ex14-4, 3-[(1R)-1-(2-Bromo-3-methylphenyl)ethyl]-5-fluoro-N-(6-fluoropyridin-2-yl)-2-oxo-2,3-dihydro-1,3-benzoxazole-6-sulfonamide] | 27 | 596
7 | C[C@H](c1cccc2c1CNCC2)n1c(=O)oc2cc(S(=O)(=O)Nc3ccc(F)cn3)c(F)cc21.Cl [Ex15-5, (R)-5-Fluoro-N-(5-fluoropyridin-2-yl)-2-oxo-3-(1-(1,2,3,4-tetrahydroisoquinolin-8-yl)ethyl)-2,3-dihydrobenzo[d]oxazole-6-sulfonamide hydrochloride] | 108 | 535
8 | C[C@H](c1ccccc1C1CNC1)n1c(=O)oc2cc(S(=O)(=O)Nc3ccc(F)cn3)c(F)cc21 [Ex15-6, 3-[(1R)-1-(2-azetidin-3-ylphenyl)ethyl]-5-fluoro-N-(5-fluoropyridin-2-yl)-2-oxo-2,3-dihydro-1,3-benzoxazole-6-sulfonamide] | 207 | 145
9 | C[C@H](c1cccc2c1CNCC2)n1c(=O)oc2cc(S(=O)(=O)Nc3cc(Cl)ccn3)c(F)cc21 [Ex16-8, N-(4-Chloropyridin-2-yl)-5-fluoro-2-oxo-3-[(1R)-1-(1,2,3,4-tetrahydroisoquinolin-8-yl)ethyl]-2,3-dihydro-1,3-benzoxazole-6-sulfonamide] | 88 | 134
10 | Cc1cc2c(cc1S(=O)(=O)Nc1cccc(F)n1)oc(=O)n2[C@H](C)c1cccc2c1CNCC2 [Ex17-4, (R)—N-(6-Fluoropyridin-2-yl)-5-methyl-2-oxo-3-(1-(1,2,3,4-tetrahydroisoquinolin-8-yl)ethyl)-2,3-dihydrobenzo[d]oxazole-6-sulfonamide] | 200 | 34
11 | Cc1cc2c(cc1S(=O)(=O)Nc1cccc(F)n1)oc(=O)n2[C@H](C)c1ccccc1CN [Ex17-7, 3-{(1R)-1-[2-(aminomethyl)phenyl]ethyl}-N-(6-fluoropyridin-2-yl)-5-methyl-2-oxo-2,3-dihydro-1,3-benzoxazole-6-sulfonamide] | 147 | 49
12 | Cc1cc2c(cc1S(=O)(=O)Nc1cccc(F)n1)oc(=O)n2[C@H](C)c1ccccc1C1=CCNCC1 [Ex17-8, N-(6-fluoropyridin-2-yl)-5-methyl-2-oxo-3-{(1R)-1-[2-(1,2,3,6-tetrahydropyridin-4-yl)phenyl]ethyl}-2,3-dihydro-1,3-benzoxazole-6-sulfonamide] | 1452 | 6
13 | Cc1cc2c(cc1S(=O)(=O)Nc1cccc(F)n1)oc(=O)n2[C@H](C)c1ccccc1C1CCNCC1 [Ex18-3, (R)—N-(6-Fluoropyridin-2-yl)-5-methyl-2-oxo-3-(1-(2-(piperidin-4-yl)phenyl)ethyl)-2,3-dihydrobenzo[d]oxazole-6-sulfonamide] | 233 | 13
14 | Cc1cc2c(cc1S(=O)(=O)Nc1cccc(F)n1)oc(=O)n2[C@H](C)c1cccc(Br)c1 [Ex18-6, 3-[(1R)-1-(3-bromophenyl)ethyl]-N-(6-fluoropyridin-2-yl)-5-methyl-2-oxo-2,3-dihydro-1,3-benzoxazole-6-sulfonamide] | 30 | 57
15 | Cc1cc2c(cc1S(=O)(=O)Nc1cccc(F)n1)oc(=O)n2[C@H](C)c1cccc(Br)c1C [Ex18-7, 3-[(1R)-1-(3-bromo-2-methylphenyl)ethyl]-N-(6-fluoropyridin-2-yl)-5-methyl-2-oxo-2,3-dihydro-1,3-benzoxazole-6-sulfonamide] | 90 | 69
16 | Cc1cc2c(cc1S(=O)(=O)Nc1cccc(F)n1)oc(=O)n2[C@H](C)c1cccc(C)c1Br [Ex18-8, 3-[(1R)-1-(2-bromo-3-methylphenyl)ethyl]-N-(6-fluoropyridin-2-yl)-5-methyl-2-oxo-2,3-dihydro-1,3-benzoxazole-6-sulfonamide] | 102 | 107
17 | Cc1cccc([C@@H](C)n2c(=O)oc3cc(S(=O)(=O)Nc4cccc(F)n4)c(F)cc32)c1CN [Ex19-1, 3-{(1R)-1-[2-(aminomethyl)-3-methylphenyl]ethyl}-5-fluoro-N-(6-fluoropyridin-2-yl)-2-oxo-2,3-dihydro-1,3-benzoxazole-6-sulfonamide] | 603 | 9
18 | Cc1cc2c(cc1S(=O)(=O)Nc1cccc(F)n1)oc(=O)n2[C@H](C)c1cccc(C)c1CN [Ex19-2, 3-{(1R)-1-[2-(aminomethyl)-3-methylphenyl]ethyl}-N-(6-fluoropyridin-2-yl)-5-methyl-2-oxo-2,3-dihydro-1,3-benzoxazole-6-sulfonamide] | 133 | 14
19 | C[C@H](c1cccc(CN)c1)n1c(=O)oc2cc(S(=O)(=O)Nc3cccc(F)n3)c(F)cc21 [Ex19-5, 3-{(1R)-1-[3-(aminomethyl)phenyl]ethyl}-5-fluoro-N-(6-fluoropyridin-2-yl)-2-oxo-2,3-dihydro-1,3-benzoxazole-6-sulfonamide] | 96 | 482
20 | C[C@H](c1cccc(CCN)c1)n1c(=O)oc2cc(S(=O)(=O)Nc3cccc(F)n3)c(F)cc21 [Ex19-11, 3-{(1R)-1-[3-(2-aminoethyl)phenyl]ethyl}-5-fluoro-N-(6-fluoropyridin-2-yl)-2-oxo-2,3-dihydro-1,3-benzoxazole-6-sulfonamide] | 244 | 103
21 | Cc1c(CCN)cccc1[C@@H](C)n1c(=O)oc2cc(S(=O)(=O)Nc3cccc(F)n3)c(F)cc21 [Ex19-12] | 195 | 154
22 | C[C@H](c1ccccc1C1CCCN1)n1c(=O)oc2cc(S(=O)(=O)Nc3cccc(F)n3)c(F)cc21 (stereo partly drawn) [Ex20-1, 5-fluoro-N-(6-fluoropyridin-2-yl)-2-oxo-3-{(1R)-1-[2-(pyrrolidin-2-yl)phenyl]ethyl}-2,3-dihydro-1,3-benzoxazole-6-sulfonamide] | 120 | 98
23 | Cc1cccc([C@@H](C)n2c(=O)oc3cc(S(=O)(=O)Nc4cccc(F)n4)c(F)cc32)c1C1CCCN1 (stereo partly drawn) [Ex20-2, 5-fluoro-N-(6-fluoropyridin-2-yl)-3-{(1R)-1-[3-methyl-2-(pyrrolidin-2-yl)phenyl]ethyl}-2-oxo-2,3-dihydro-1,3-benzoxazole-6-sulfonamide] | 272 | 35
24 | C[C@H](c1cccc(C2CCCN2)c1)n1c(=O)oc2cc(S(=O)(=O)Nc3cccc(F)n3)c(F)cc21 (stereo partly drawn) [Ex20-3, 5-fluoro-N-(6-fluoropyridin-2-yl)-2-oxo-3-{(1R)-1-[3-(pyrrolidin-2-yl)phenyl]ethyl}-2,3-dihydro-1,3-benzoxazole-6-sulfonamide] | 218 | 243
25 | C[C@H](c1cccc(C#CC(C)(C)N)c1)n1c(=O)oc2cc(S(=O)(=O)Nc3cccc(F)n3)c(F)cc21 [Ex21-1, 3-{(1R)-1-[3-(3-amino-3-methylbut-1-yn-1-yl)phenyl]ethyl}-5-fluoro-N-(6-fluoropyridin-2-yl)-2-oxo-2,3-dihydro-1,3-benzoxazole-6-sulfonamide] | 151 | 229
